Test results taken from the NIST ThermoML archive (doi:10.1016/j.jct.2015.10.009).
Numbers after ± are expanded uncertainties.

How the values were obtained:
[1] = Liquid; for vapor or sublimation pressure: Closed cell (Static) method
[2] = refractive index (Na D-line) (dimensionless); conditions: 298.15 K; 101.33 kPa; Liquid; Standard Abbe refractometry

## O=C=O [carbon dioxide]
[1]; 272.78 K
  vapor or sublimation pressure: 3476 ± 11 kPa
[1]; 277.83 K
  vapor or sublimation pressure: 3958 ± 12 kPa
[1]; 282.87 K
  vapor or sublimation pressure: 4487 ± 13 kPa
[1]; 287.92 K
  vapor or sublimation pressure: 5069 ± 13 kPa
[1]; 292.95 K
  vapor or sublimation pressure: 5705 ± 14 kPa
[1]; 297.99 K
  vapor or sublimation pressure: 6404 ± 16 kPa
[1]; 303.03 K
  vapor or sublimation pressure: 7176 ± 17 kPa

## CCCCCC [hexane]
[2]
  refractive index: 1.3724 ± 0.0004
[1]; 298.15 K, 101.33 kPa, Vibrating tube method
  mass density: 655.241 ± 0.26 kg/m3

## FC(F)F [trifluoromethane]
[1]; 267.81 K
  vapor or sublimation pressure: 2176 ± 9 kPa
[1]; 272.86 K
  vapor or sublimation pressure: 2497 ± 9 kPa
[1]; 277.9 K
  vapor or sublimation pressure: 2881 ± 10 kPa
[1]; 282.96 K
  vapor or sublimation pressure: 3269 ± 10 kPa
[1]; 287.99 K
  vapor or sublimation pressure: 3707 ± 11 kPa
[1]; 292.02 K
  vapor or sublimation pressure: 4084 ± 11 kPa
[1]; 293.04 K
  vapor or sublimation pressure: 4180 ± 12 kPa
[1]; 297.07 K
  vapor or sublimation pressure: 4605 ± 12 kPa
